From ChEMBL document CHEMBL3217460, “Interactions of polysulfanes with components of red blood cells” (Medchemcomm, 2011) come the findings set out here.

In data set [1] the test system is Erythrocyte. Description: Hemolytic activity in human RBC assessed as oxidation of hemoglobin to methemoglobin after 30 mins by UV-Vis spectrophotometric analysis. The format is functional, cell-based.
The test system of data set [2] is Erythrocyte. The data set can be described thus: Hemolytic activity in human RBC assessed as phosphatidylserine exposure on outer leaflet of cell membrane at 50 uM after 20 mins by annexin V-FITC staining-based FACS analysis. The format is functional. Background: In flow cytometry, cells or beads pass a laser one at a time.
Data set [3] deals with T1, Hemoglobin HbA (Homo sapiens) (UniProt P69905+P68871). Description: Binding affinity to human hemoglobin at 100 to 300 uM by UV-Vis spectrophotometric analysis.
T1 sequence (P68871 2-147 partner limits assumed): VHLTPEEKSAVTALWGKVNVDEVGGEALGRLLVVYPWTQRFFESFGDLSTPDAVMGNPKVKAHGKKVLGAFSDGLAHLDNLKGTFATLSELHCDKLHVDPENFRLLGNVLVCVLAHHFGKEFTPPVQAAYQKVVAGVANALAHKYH
T1 sequence (P69905 2-142 limits assumed): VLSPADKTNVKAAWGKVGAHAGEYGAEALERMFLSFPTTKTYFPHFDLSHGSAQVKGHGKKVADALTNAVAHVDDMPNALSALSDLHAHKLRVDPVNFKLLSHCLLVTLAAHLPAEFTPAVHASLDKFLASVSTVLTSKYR
Data set [4] addresses T1, Hemoglobin HbA (Homo sapiens). The data set can be described thus: Binding affinity to human hemoglobin by CD spectroscopic analysis.

Active and inactive are the calls of the source. The rule behind the calls is not given here.

For `C=CCSSSSCC=C`, in the data set on Erythrocyte [1], the Activity entry was “Dose-dependent effect”. Moreover, the result (in the data set on Erythrocyte [2]; in data set [3]; in data set [4]) was Active.

On to `C=CCSSCC=C`, for which the result (in the data set on Erythrocyte [2]; in data set [3]; in data set [4]) was Active. For the same compound, the logP at 1000 µM in “physchem” is 2.72.

Turning to `C=CCSSSCC=C`, the Activity entry with Erythrocyte [1] was “Dose-dependent effect”. Further, the result (with Erythrocyte [2]; in data set [3]; in data set [4]) was Active.

With `C=CCSCC=C`, the outcome (with Erythrocyte [2]; in data set [3]; in data set [4]) was Active.

As for `C=CCCCCCCC=C`, the logP at 1000 µM in “physchem” was 4.71.

Regarding `C=CCS`, in the data set on Erythrocyte [2], the result was Active.

The term logP denotes the decadic logarithm of the partition coefficient of the neutral form, usually between octanol and water. Read a high logP as higher lipophilicity.
